Biological target: 3-phosphoinositide-dependent protein kinase 1 (Homo sapiens) (UniProt O15530)
Test: Inhibition of PDK1

With `CN(C)Cc1ccc(-c2cnn3c(-c4cccc(NC(=O)c5cccc(C(F)(F)F)c5)c4)ccnc23)cc1` [N-[3-(3-{4-[(dimethylamino)methyl]phenyl}pyrazolo[1,5-a]pyrimidin-7-yl)phenyl]-3-(trifluoromethyl)benzamide] the IC50 was over 2000 nM.
